Legend:
TMPK = molecular target: T1, TMPK (Homo sapiens, UniProt P23919); assay: Luciferase-coupled TMPK assay; type: biochemical; design: GST (N, cleaved yes); made in house; host or cells: E. coli JM109 (pGEX-2T-hTMPK); details: purified hTMPK protein (0.5 μg), 10 min preincubation; read-out: IC50 against hTMPK
T1 sequence (P23919 1-212): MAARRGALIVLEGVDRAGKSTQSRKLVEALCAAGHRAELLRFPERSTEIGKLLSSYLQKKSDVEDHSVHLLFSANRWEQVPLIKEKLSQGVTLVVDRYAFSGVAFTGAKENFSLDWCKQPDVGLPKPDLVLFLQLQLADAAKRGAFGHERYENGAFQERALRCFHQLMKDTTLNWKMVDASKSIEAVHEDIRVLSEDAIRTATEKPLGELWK
Procedure: FIG. 12. Identification of a novel hTMPK inhibitor. (A) A screen of TMPK inhibitor by luciferase-coupled assay. (B) The chemical structures of YMU1 (compound 21) and related molecules. (C) Effect of YMU1 and derivative compounds on hTMPK inhibition using purified hTMPK protein (0.5 μg) with 10 min preincubation prior to reaction using luciferase-coupled TMPK analysis. (D) Effect of YMU1 on activity of purified TMPK (0.5 μg) and GST-hTK1 protein (5 μg) with 10 min preincubation prior to reaction. Data represent mean±s.d. (n=4) (E) Molecular models of the TMPK-YMU1 complex. Left panel: TMPK/ATP/Mg+2; right panel: TMPK/YMU1. The TMPK is represented in surface electrostatic potential (upper) and structural ribbon (lower). ATP and YMU1 are shown in green and blue stick, respectively, with colored atom (O, red; S, yellow; P, orange). TMP is shown in white backbone and Mg+2 in purple. Arrow indicates the position of Asp15.
Based on the functional requirement of TMPK in DNA repair specifically in tumor cells with elevated level of R2 expression, we searched for inhibitors of hTMPK that might be useful in selectively sensitizing tumor cells to doxorubicin. […] The synthetic procedure and structural elucidation of YMU1 (compound 21) are described in the Methods of the Invention section of the application.
The TMPK reaction was started by adding purified hTMPK in 50 μl of TMPK assay buffer (100 mM Tris-HCl, pH 7.5, 100 mM KCl, 10 mM MgCl2, 50 μM ATP and 100 μM dTMP) in 96 wells plate at 25° C. for 10 min and terminated by adding 200 μl of DTNB (100 μM), followed by transferring 10 μl of reaction solution to a white 96-wellplate containing 90 μl of luciferase assay buffer (50 mM Glycine, 0.5 mM EDTA and 5 mM EDTA, pH 7.0, 0.1 μg of luciferase, 50 μM luciferin and 0.1% BSA). The luminescence was measured with a luminescence counter (Packard).

HCT-116 p53−/− cells = assay: Whole-cell dTTP extraction and quantification; type: cell-based, human
Procedure: FIG. 13. Effect of YMU1 on cellular dTTP level. HCT-116 p53−/− cells were transfected with or without TMPK siRNA for 2 days and treated with vehicle or YMU1. After 72 h, cells were harvested for Western blot analysis and dNTP level determination (mean±s.d., n=3; **, P<0.01 based on a two-tailed Student's t-test).
The investigators performed additional experiments to determine the effect of YMU1 treatment on cellular dTTP levels. YMU1 treatment in cells reduced dTTP pool about 30-40% after treatment with YMU1 for 3 days (FIG. 13). Transfection of these cells with siRNA to knock-down TMPK expression reduced the dTTP pool size in a similar magnitude.
10^6 cells were extracted with 1 ml of ice-cold 60% methanol at −20° C. overnight, followed by centrifugation for 30 min at 16,000×g. The supernatant was immersed at 100° C. in dry bath for 3 min and dried under vacuum. The dry residue was dissolved in 80 μl of nuclease free water and used for cellular dNTP measurement according to the method described by Ferraro et al. (Ferraro et al., 2010).

MDA-MB231 cells = assay: Comet assay of DNA repair efficiency after doxorubicin; type: cell-based, human; details: YMU1 treatment, after removal of doxorubicin (0.1 μM)
Procedure: FIG. 15. […] DNA repair efficiency was measured by comet assay at indicated time after removal of doxorubicin (0.1 μM) in MDA-MB231 cells. Image of DNA comet was acquired and quantified by using scion image software for tail moment determination. Data were expressed as mean±s.d. by counting at least 70 comets per sample in 3 independent experiments. **, P<0.01 based on a two-tailed Student's t-test.
Alkaline comet assays were performed using a Trevigen's Comet Assay kit (4250-050-k) according to the manufacturer's instruction. DNA was stained with SYBR Green, and slides were photographed digitally (Olympus BX51 microscope and Olympus camera). Tail moments were analyzed using Scoin Image software.

[1] = tested on: H184B5F5/M10, MCF-10A, MCF-7 and HCT-116 p53−/− cells
Procedure: (B) H184B5F5/M10 cells were seeded onto 100 mm-dish at 5,000 cells/dish. MCF-10A, MCF-7 and HCT-116 p53^−/− cells were seeded onto 6 well plate at 600 cells/well. Following overnight culture, cells were treated with various concentration of YMU1 or FdUrd thrice a week. After 14 days colonies were fixed, stained by crystal violet.
We also compared the effect of YMU1 and FdUrd on cell viability of non-tumorigenic mammary cycling cells, H184B5F5/M10 and MCF-10A and tumor lines, MCF-7 and HCT-116 p53^−/− cells.
After 14 days, colonies were fixed and stained by crystal violet and counted.

## CCOC(=O)N1CCN(C(=O)Cn2sc3nc(C)cc(C)c3c2=O)CC1 [compound 21, Ethyl 4-(2-(4,6-dimethyl-3-oxoisothiazolo[5,4-b]pyridin-2(3H)-yl)acetyl) piperazine-1-carboxylate]
TMPK
  IC50: 610 ± 20 nM
HCT-116 p53−/− cells; cells transfected with TMPK siRNA, then YMU1
  further reduction of dTTP pool in TMPK knockdown cells: did not cause a further reduction
HCT-116 p53−/− cells; treatment with YMU1 for 3 days
  reduction of dTTP pool: 30-40%
MDA-MB231 cells
  DNA repair (comet assay, tail moment): impairment of DNA repair
[1]
  death of cells in colony assay: did not

Reference: US9278982B2, “Targeting human thymidylate kinase induces DNA repair toxicity in malignant tumor cells” (NATIONAL YANG-MING UNIVERSITY, priority 2010, dated 2016)
